Experimental data published in US11628181B2, “N4-hydroxycytidine and derivatives and anti-viral uses related thereto” (Emory University, priority 2014, dated 2023).
Converted amounts (≈) assume the structure as drawn. Read-outs that look alike come from different tables or passages of the source.

Legend:
[1] = test system: CHIKV; assay: microbe, parasite or virus in culture; details: Chikungunya virus
[2] = in vitro
[3] = test system: Chikungunya virus; assay: Chikungunya virus (MOI 0.5) viral inhibition in U2OS cell line; assay type: cell-based; details: for inhibition at 10 µM: read-out: Viral Inh. 10 uM; for inhibition at 50 µM: read-out: Viral Inh. 50 uM
[4] = test system: U2OS cell line; assay: Cell viability, U2OS cell line (Chikungunya screen)
[5] = test system: SARS Coronavirus Urbani; assay: microbe, parasite or virus in culture; assay type: cell-based; details: Severe acute respiratory syndrome-related coronavirus, Vero 76
[6] = in vitro; details: African green monkey
[7] = test system: VEEV; assay: microbe, parasite or virus in culture; assay type: cell-based; details: Venezuelan equine encephalitis virus, HeLa
[8] = test system: HeLa; details: human
[9] = test system: MERV; assay: MERV (MOI 0.4) viral inhibition in Vero; assay type: cell-based; details: MERV MOI 0.4, Vero
[10] = test system: Vero; assay: Cell viability, Vero (MERV screen); assay type: cell-based
[11] = test system: VEEV; assay: microbe, parasite or virus in culture; assay type: cell-based; details: Venezuelan equine encephalitis virus, Astrocyte; for inhibition at 10 µM: read-out: Viral Inh. 10 uM; for inhibition at 50 µM: read-out: Viral Inh. 50 uM
[12] = test system: Astrocytes

Work on O=c1ccn([C@@H]2O[C@H](CO)C(O)[C@@]23CC3(F)F)c(=O)[nH]1 (stereo partly shown) [EIDD-02340-01] yielded an EC50 [1] of over 78 µM and a CC50 [2] of over 500 µM.
In the case of C#C[C@@]1(O)C(O)[C@@H](COP(=O)(OCOC(=O)C(C)(C)C)OCOC(=O)C(C)(C)C)O[C@H]1n1ccc(=O)[nH]c1=O (stereo partly shown) [EIDD-02290-01], the EC50 [1] is reported as 64.4 µM and the CC50 [2] is reported as 274 µM.
In the case of CC(C)OC(=O)[C@H](C)NP(=O)(OC[C@H]1O[C@@H](n2ccc(NO)nc2=O)C(O)C1O)Oc1ccccc1 (stereo partly shown) [drawing 75], the inhibition at 10 µM [3] is reported as 3%, the inhibition at 50 µM [3] is reported as 36% and the “Cell Viability 10 uM” value [4] is reported as 99% ± 6% (n = 4). For the same molecule, the “Cell Viability 50 uM” value [4] was 99% ± 8% (n = 4).
CNC(=O)ONc1ccn([C@@H]2O[C@H](CO)C(O)[C@@H]2O)c(=O)n1 (stereo partly shown) [EIDD-02422-01] gave an EC50 [1] of 32 µM and a CC50 [2] of over 500 µM.
With [2H]c1cn([C@@H]2O[C@H](CO)C(O)[C@@H]2O)c(=O)nc1NO (stereo partly shown) [EIDD-02261-01] the EC50 [1] was 1.5 µM and the CC50 [2] was over 500 µM.
CCCCCCCOC(=O)ONc1ccn([C@@H]2O[C@H](CO)C(O)C2O)c(=O)n1 (stereo partly shown) [drawing 70] gave an EC50 [5] of 0.28 µg/mL (≈ 0.698 µM) and a CC50 [6] of over 100 µg/mL.
For O=c1nc(NO)ccn1[C@@H]1O[C@H](CO)C(O)C1O (stereo partly shown) [drawing 78], the EC50 [7] was 1.24 µM, the inhibition at 10 µM ([7]; read-out: Viral Inh. 10 uM) was 100% and the inhibition at 50 µM ([7]; read-out: Viral Inh. 50 uM) was 100%. The “Cell Viability 10 uM” value [8] was 116% ± 24% (n = 4) and the “Cell Viability 50 uM” value [8] was 61% ± 8% (n = 4).
CC(C)(C)C(=O)OCOP(=O)(OCOC(=O)C(C)(C)C)OC[C@H]1O[C@@H](n2ccc(=O)[nH]c2=O)[C@](C)(O)C1O (stereo partly shown) [EIDD-02416-01] showed an EC50 [1] of 27 µM and a CC50 [2] of 53 µM.
Molecule O=c1nc(NO)ccn1[C@@H]1O[C@H](CO)C(O)[C@@H]1O (stereo partly shown) [EIDD-02200-01] has an EC50 [1] of over 78 µM and a CC50 [2] of over 500 µM.
Molecule CCCCCCCCC(=O)ONc1ccn([C@@H]2O[C@H](CO)C(O)C2O)c(=O)n1 (stereo partly shown) has an EC50 [5] of 0.19 µg/mL (≈ 0.476 µM) and a CC50 [6] of 36 µg/mL (≈ 90.1 µM).
For O=c1nc(NO)ccn1[C@@H]1O[C@H](CO)C(O)C1O (stereo partly shown) [drawing 73], the inhibition at 10 µM [3] was 80%, the inhibition at 50 µM [3] was 100% and the “Cell Viability 10 uM” value [4] was 97% ± 5% (n = 4). The “Cell Viability 50 uM” value [4] was 79% ± 10% (n = 4).
For [2H]C([2H])(O)[C@H]1O[C@@H](n2ccc(NO)nc2=O)[C@@H](O)C1O (stereo partly shown) [EIDD-02345-01], the EC50 [1] was 1.5 µM and the CC50 [2] was over 500 µM.
With CCOP(=O)(OCC)OC[C@H]1O[C@@H](n2ccc(NO)nc2=O)[C@@H](O)C1O (stereo partly shown) [EIDD-02503-01] the EC50 [1] was over 78 µM and the CC50 [2] was over 500 µM.
For CCCCCCCCCCCCCCCCOCCCOP(=O)(O)OC[C@H]1O[C@@H](n2ccc(NO)nc2=O)[C@@H](O)C1O (stereo partly shown) [EIDD-02108-03], the EC50 [1] was 34.5 µM and the CC50 [2] was 98 µM.
CC1(F)[C@@H](O)[C@@H](CO)O[C@H]1n1ccc(NO)nc1=O (stereo partly shown) [EIDD-02080-01] gave an EC50 [1] of over 75 µM and a CC50 [2] of over 500 µM.
NNc1ccn([C@@H]2O[C@H](CO)C(O)[C@@H]2O)c(=O)n1 (stereo partly shown) [EIDD-01910-01] showed an EC50 [1] of over 78 µM and a CC50 [2] of over 500 µM.
With CCCCCCCOC(=O)ONc1ccn([C@@H]2O[C@H](CO)C(O)C2O)c(=O)n1 (stereo partly shown) [drawing 89] the inhibition at 10 µM ([9]; 10 uM, read-out: Viral Inh. 10 uM) was 99%, the inhibition at 50 µM ([9]; 50 uM, read-out: Viral Inh. 50 uM) was 99% and the “Cell Viability 10 uM” value ([10]; 10 uM) was 84% ± 8% (n = 4). For the same molecule, the “Cell Viability 50 uM” value ([10]; 50 uM) was 58% ± 2% (n = 4).
Molecule CC(C)(C)C(=O)OCOP(=O)(OCOC(=O)C(C)(C)C)OC[C@@]1(N=[N+]=[N-])O[C@@H](n2ccc(=O)[nH]c2=O)[C@@H](O)C1O (stereo partly shown) [EIDD-02110-03] has an EC50 [1] of 56 µM and a CC50 [2] of 387 µM.
In the case of O=c1nc(NO)ccn1[C@@H]1O[C@H](CO)C(O)C1O (stereo partly shown) [drawing 83], the inhibition at 10 µM [11] is reported as 99%, the inhibition at 50 µM [11] is reported as 100% and the “Cell Viability 10 uM” value [12] is reported as 98% ± 12% (n = 3). For the same molecule, the “Cell Viability 50 uM” value [12] was 86% ± 5% (n = 3).
In the case of CC(C)OC(=O)[C@H](C)NP(=O)(OC[C@H]1O[C@@H](n2ccc(NO)nc2=O)C(O)C1O)Oc1ccccc1 (stereo partly shown) [drawing 85], the inhibition at 10 µM [11] is reported as 49%, the inhibition at 50 µM [11] is reported as 96% and the “Cell Viability 10 uM” value [12] is reported as 102% ± 16% (n = 3). For the same molecule, the “Cell Viability 50 uM” value [12] was 100% ± 17% (n = 3).
Work on CCCCCCCNC(=O)ONc1ccn([C@@H]2O[C@H](CO)[C@H](O)C2O)c(=O)n1 (stereo partly shown) [EIDD-02107-01] yielded an EC50 [1] of 29 µM and a CC50 [2] of 165 µM.
CCCCCCCCC(=O)OC[C@H]1O[C@@H](n2ccc(NO)nc2=O)C(O)[C@H]1O (stereo partly shown) [EIDD-02476-01] showed an EC50 [1] of 0.3 µM and a CC50 [2] of 154 µM.
In the case of CCCCCCCNC(=O)ONc1ccn([C@@H]2O[C@H](CO)C(O)C2O)c(=O)n1 (stereo partly shown) [drawing 77], the inhibition at 10 µM [3] is reported as 14%, the inhibition at 50 µM [3] is reported as 70% and the “Cell Viability 10 uM” value [4] is reported as 105% ± 2% (n = 4). The “Cell Viability 50 uM” value [4] was 96% ± 11% (n = 4).
